Laboratory results as given in US20080146616A1, “Indoles Useful in the Treatment of Inflammation” (priority 2004, published 2008).

Molecular target: T1, human mPGES-1 (Homo sapiens, UniProt O14684)
T1 construct: made in house; host or cells: E. coli (membrane fraction)
T1 sequence (O14684 1-152): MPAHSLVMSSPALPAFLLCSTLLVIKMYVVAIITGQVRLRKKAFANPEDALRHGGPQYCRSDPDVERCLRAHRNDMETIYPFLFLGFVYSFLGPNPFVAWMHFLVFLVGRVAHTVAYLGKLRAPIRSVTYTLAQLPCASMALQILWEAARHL
Test: mPGES-1 inhibition assay (conversion of PGH2 to PGE2, HPLC analysis)
Type: biochemical
Conditions: human mPGES-1 expressed in E. coli, membrane fraction; 25 min preincubation, PGH2 substrate 60 s, room temperature; read-out: concentration at which 50% inhibition of mPGES-1 was observed
Protocol: In the assay human in PGES-1 catalyses the reaction where the substrate PGH2 is converted to PGE2. mPGES-1 is expressed in E. Coli and the membrane fraction is dissolved in 20mM NaPi-buffer pH 8.0 and stored at −80° C. In the assay human mPGES-1 is dissolved in 0.1 M KPi-buffer pH 7.35 with 2.5 mM glutathione. The stop solution consists of H2O/MeCN (7/3), containing FeCl2 (25 mM) and HCl (0.15 M). The assay is performed at room temperature in 96-well plates. Analysis of the amount of PGE2 is performed with reversed phase HPLC (Waters 2795 equipped with a 3.9×150 mm C18 column). The mobile phase consists of H2O/MeCN (7/3), containing TFA (0.056%), and absorbance is measured at […] with a Waters 2487 UV-detector.
The following is added chronologically to each well: • 1. 100 μL human mPGES-1 in KPi-buffer with glutathione. Total protein concentration: 0.02 mg/mL. • 2. […] inhibitor in DMSO. Incubation of the plate at room temperature for 25 minutes. • 3. 4 μL of a […] PGH2 solution. Incubation of the plate at room temperature for 60 seconds. • 4. 100 μL stop solution. • 180 μL per sample is analyzed with HPLC.

| Compound | IC50 [nM] |
| --- | --- |
| CC(C)Oc1ccc(-c2c(C(=O)O)n(-c3cccc(OC(C)C)c3)c3ccc(-c4ccc(C(C)(C)C)cc4)cc23)cc1 [Example 2, 5-(4-tert-Butylphenyl)-1-(3-isopropoxyphenyl)-3-(4-isopropoxyphenyl)-indole-2-carboxylic acid] | 350 |
| CC(C)Oc1ccc(-c2c(C(=O)O)n(-c3ccc(N(C)C)cc3)c3ccc(-c4ccc(C(C)(C)C)cc4)cc23)cc1 [Example 5, 5-(4-tert-Butylphenyl)-1-(4-(dimethylamino)phenyl)-3-(4-isopropoxyphenyl)indole-2-carboxylic acid] | 210 |
| CC(C)Nc1ccc(-n2c(C(=O)O)c(-c3ccc(OC(C)C)cc3)c3cc(-c4ccc(C(C)(C)C)cc4)ccc32)cc1 [Example 6, 5-(4-tert-Butylphenyl)-3-(4-isopropoxyphenyl)-1-(4-(isopropylamino)-phenyl)indole-2-carboxylic acid] | 70 |

The next lines start with the values.

| IC50 [nM] | Compound |
| --- | --- |
| 950 | CC(C)Oc1ccc(-c2c(C(=O)O)n(-c3cccnc3)c3ccc(-c4ccc(C(C)(C)C)cc4)cc23)cc1 [Example 13, 5-(4-tert-Butylphenyl)-3-(4-isopropoxyphenyl)-1-pyrid-3-yl-1H-indole-2-carboxylic acid] |
| 1800 | CC(C)Oc1ccc(-n2c(C(=O)O)c(-c3cccnc3)c3cc(-c4ccc(C(F)(F)F)cc4)ccc32)cn1 [Example 11, 1-(6-Isopropoxypyrid-3-yl)-3-(pyrid-3-yl)-5-(4-(trifluoromethyl)phenyl)-indole-2-carboxylic acid] |
